According to patent US8119624B2, “Fused phenyl amido heterocyclic compounds” (Pfizer Inc., priority 2006, dated 2012):

Molecular target: T1, Full-length glucokinase (beta cell isoform) (Homo sapiens, UniProt P35557)
T1 construct: Full-length glucokinase (beta cell isoform) was His-tagged at N-terminus; His tag (N); made in house
T1 sequence (P35557 1-465): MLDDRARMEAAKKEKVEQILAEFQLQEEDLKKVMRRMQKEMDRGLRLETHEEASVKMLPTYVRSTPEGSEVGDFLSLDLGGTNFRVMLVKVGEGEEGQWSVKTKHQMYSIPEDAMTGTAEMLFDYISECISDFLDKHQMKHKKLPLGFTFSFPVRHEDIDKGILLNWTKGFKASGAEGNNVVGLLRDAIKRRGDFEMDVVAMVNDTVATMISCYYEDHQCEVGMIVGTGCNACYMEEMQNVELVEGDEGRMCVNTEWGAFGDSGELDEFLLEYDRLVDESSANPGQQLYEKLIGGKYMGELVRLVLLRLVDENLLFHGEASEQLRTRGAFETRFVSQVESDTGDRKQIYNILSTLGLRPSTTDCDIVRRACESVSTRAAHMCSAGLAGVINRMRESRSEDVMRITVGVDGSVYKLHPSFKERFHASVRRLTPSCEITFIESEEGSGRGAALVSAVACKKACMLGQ
Assay: Glucokinase biochemical assay (PK/LDH-coupled, NADH depletion at 340 nm): % activation, EC50, % max activation
Conditions: 5 mM glucose; for activation at 10 µM: 10 uM compound, % Activation=(Va/Vo−1)×100, read-out: % Activation at 10 uM; for EC50: GK activation, read-out: EC50; for Emax: fitted maximum activation, read-out: % Max Activation
Procedure, shortened: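 N-terminally His-tagged full-length human beta-cell glucokinase, room temperature, 5 mM glucose, 1 mM ATP, PK/LDH-coupled with 0.7 mM NADH, 1% DMSO final. Initial velocity from the 200–900 s slope of A340 decline. % activation = (Va/Vo−1)×100, measured across compound concentrations.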

SMILES | activation at 10 µM | EC50 | Emax
Cn1ccc(NC(=O)c2cc(Oc3ccc(C(=O)NCCO)c(F)c3)c3c(c2)OC(C)(C)C3)n1 [Example 72, 4-[3-Fluoro-4-(2-hydroxy-ethylcarbamoyl)-phenoxy]-2,2-dimethyl-2,3-dihydro-benzofuran-6-carboxylic acid(1-methyl-1H-pyrazol-3-yl)-amide] | 182% | 0.95 µM | 161%
Cn1ccc(NC(=O)c2cc(Oc3ccc(C(=O)NC4CC4)c(F)c3)c3c(c2)OC(C)(C)C3)n1 [Example 73, 4-(4-Cyclopropylcarbamoyl-3-fluoro-phenoxy)-2,2-dimethyl-2,3-dihydro-benzofuran-6-carboxylic acid(1-methyl-1H-pyrazol-3-yl)-amide] | 254% | 0.39 µM | 232%
Cn1ccc(NC(=O)c2cc(Oc3ccc(C(=O)NC4CCC4)c(F)c3)c3c(c2)OC(C)(C)C3)n1 [Example 74, 4-(4-Cyclobutylcarbamoyl-3-fluoro-phenoxy)-2,2-dimethyl-2,3-dihydro-benzofuran-6-carboxylic acid(1-methyl-1H-pyrazol-3-yl)-amide] | 285% | 0.54 µM | 258%
Cn1ccc(NC(=O)c2cc(Oc3ccc(C(=O)NCCF)c(F)c3)c3c(c2)OC(C)(C)C3)n1 [Example 75, 4-[3-Fluoro-4-(2-fluoro-ethylcarbamoyl)-phenoxy]-2,2-dimethyl-2,3-dihydro-benzofuran-6-carboxylic acid(1-methyl-1H-pyrazol-3-yl)-amide] | 193% | 0.26 µM | 189%
Cn1ccc(NC(=O)c2cc(Oc3ccc(C(=O)NCC(F)F)c(F)c3)c3c(c2)OC(C)(C)C3)n1 [Example 76, 4-[4-(2,2-Difluoro-ethylcarbamoyl)-3-fluoro-phenoxy]-2,2-dimethyl-2,3-dihydro-benzofuran-6-carboxylic acid(1-methyl-1H-pyrazol-3-yl)-amide] | 203% | 0.47 µM | 206%
CC1(C)Cc2c(OCc3ccccc3)cc(C(=O)Nc3ccc(C(=O)O)cn3)cc2O1 [Example 77, 6-[(4-Benzyloxy-2,2-dimethyl-2,3-dihydro-benzofuran-6-carbonyl)-amino]-nicotinic acid] | 64.4% | 0.15 µM | 66%
C[C@@H](Cc1ccccc1)Oc1cc(C(=O)Nc2ccn(C)n2)cc2c1CC(C)(C)O2 [Example 78, 2,2-Dimethyl-4-((S)-1-methyl-2-phenyl-ethoxy)-2,3-dihydro-benzofuran-6-carboxylic acid (1-methyl-1H-pyrazol-3-yl)-amide] | 139% | 1.47 µM | 149%
COc1ccc(CC(C)Oc2cc(C(=O)Nc3ccn(C)n3)cc3c2CC(C)(C)O3)cc1 (stereo not shown) [Example 79, 4-[2-(4-Methoxy-phenyl)-1-methyl-ethoxy]-2,2-dimethyl-2,3-dihydro-benzofuran-6-carboxylic acid (1-methyl-1H-pyrazol-3-yl)-amide] | 148% | 2.1 µM | 171%
Cn1ccc(NC(=O)c2cc(OCc3ccccc3)c3c(c2)OC(C)(C)C3)n1 [Example 80, 4-Benzyloxy-2,2-dimethyl-2,3-dihydro-benzofuran-6-carboxylic acid (1-methyl-1H-pyrazol-3-yl)-amide] | 111% | 5.9 µM | 176%
CC(Oc1cc(C(=O)Nc2ccn(C)n2)cc2c1CC(C)(C)O2)c1ccccn1 (stereo not shown) [Example 81, 2,2-Dimethyl-4-(1-pyridin-2-yl-ethoxy)-2,3-dihydro-benzofuran-6-carboxylic acid (1-methyl-1H-pyrazol-3-yl)-amide] | 112% | 5.3 µM | 148%
CC(Oc1cc(C(=O)Nc2ccn(C)n2)cc2c1CC(C)(C)O2)c1cnccn1 (stereo not shown) [Example 82, 2,2-Dimethyl-4-(1-pyrazin-2-yl-ethoxy)-2,3-dihydro-benzofuran-6-carboxylic acid (1-methyl-1H-pyrazol-3-yl)-amide] | 110% | 5.1 µM | 135%
Cc1nccnc1C(C)Oc1cc(C(=O)Nc2ccn(C)n2)cc2c1CC(C)(C)O2 (stereo not shown) [Example 83, 2,2-Dimethyl-4-[1-(3-methyl-pyrazin-2-yl)-ethoxy]-2,3-dihydro-benzofuran-6-carboxylic acid (1-methyl-1H-pyrazol-3-yl)-amide] | 78.3% | 8.2 µM | 148%
COCC(C)Oc1cc(C(=O)Nc2ccn(C)n2)cc2c1CC(C)(C)O2 (stereo not shown) [Example 84, 4-(2-Methoxy-1-methyl-ethoxy)-2,2-dimethyl-2,3-dihydro-benzofuran-6-carboxylic acid (1-methyl-1H-pyrazol-3-yl)-amide] | 58.4% | > 10 µM | –
CC(CN1CCOCC1)Oc1cc(C(=O)Nc2ccn(C)n2)cc2c1CC(C)(C)O2 (stereo not shown) [Example 85, 2,2-Dimethyl-4-(1-methyl-2-morpholin-4-yl-ethoxy)-2,3-dihydro-benzofuran-6-carboxylic acid (1-methyl-1H-pyrazol-3-yl)-amide] | 12% | – | –
CC(Oc1cc(C(=O)Nc2ccn(C)n2)cc2c1CC(C)(C)O2)c1ccncn1 (stereo not shown) [Example 86, 2,2-Dimethyl-4-(1-pyrimidin-4-yl-ethoxy)-2,3-dihydro-benzofuran-6-carboxylic acid (1-methyl-1H-pyrazol-3-yl)-amide] | 124% | 4.8 µM | 159%
Cc1ccnc(C(C)Oc2cc(C(=O)Nc3ccn(C)n3)cc3c2CC(C)(C)O3)c1 (stereo not shown) [Example 87, 2,2-Dimethyl-4-[1-(4-methyl-pyridin-2-yl)-ethoxy]-2,3-dihydro-benzofuran-6-carboxylic acid (1-methyl-1H-pyrazol-3-yl)-amide] | 73.6% | 8.6 µM | 136%

More lines, now with the values ahead:

activation at 10 µM | EC50 | Emax | SMILES
38.2% | – | – | Cn1ccc(NC(=O)c2cc(OCc3cc(O)nc(-c4cnccn4)n3)c3c(c2)OC(C)(C)C3)n1 [Example 88, 4-(6-Hydroxy-2-pyrazin-2-yl-pyrimidin-4-ylmethoxy)-2,2-dimethyl-2,3-dihydro-benzofuran-6-carboxylic acid (1-methyl-1H-pyrazol-3-yl)-amide]
139% | 3.9 µM | 157% | Cn1ccc(NC(=O)c2cc(OCC3CC3)c3c(c2)OC(C)(C)C3)n1 [Example 89, 4-Cyclopropylmethoxy-2,2-dimethyl-2,3-dihydro-benzofuran-6-carboxylic acid (1-methyl-1H-pyrazol-3-yl)-amide]
112% | 5.6 µM | 138% | Cc1nc(COc2cc(C(=O)Nc3ccn(C)n3)cc3c2CC(C)(C)O3)cs1 [Example 90, 2,2-Dimethyl-4-(2-methyl-thiazol-4-ylmethoxy)-2,3-dihydro-benzofuran-6-carboxylic acid (1-methyl-1H-pyrazol-3-yl)-amide]
150% | 3.5 µM | 150% | Cn1ccc(NC(=O)c2cc(OCc3noc(C(C)(C)C)n3)c3c(c2)OC(C)(C)C3)n1 [Example 91, 4-(5-tert-Butyl-[1,2,4]oxadiazol-3-ylmethoxy)-2,2-dimethyl-2,3-dihydro-benzofuran-6-carboxylic acid (1-methyl-1H-pyrazol-3-yl)-amide]
87% | 9.5 µM | 164% | CCOc1cc(C(=O)Nc2ccn(C)n2)cc2c1CC(C)(C)O2 [Example 92, 4-Ethoxy-2,2-dimethyl-2,3-dihydro-benzofuran-6-carboxylic acid (1-methyl-1H-pyrazol-3-yl)-amide]
95.2% | 9.7 µM | 136% | Cn1ccc(NC(=O)c2cc(OCCCC#N)c3c(c2)OC(C)(C)C3)n1 [Example 93, 4-(3-Cyano-propoxy)-2,2-dimethyl-2,3-dihydro-benzofuran-6-carboxylic acid (1-methyl-1H-pyrazol-3-yl)-amide]
116% | 4.4 µM | 140% | Cc1noc(COc2cc(C(=O)Nc3ccn(C)n3)cc3c2CC(C)(C)O3)n1 [Example 94, 2,2-Dimethyl-4-(3-methyl-[1,2,4]oxadiazol-5-ylmethoxy)-2,3-dihydro-benzofuran-6-carboxylic acid (1-methyl-1H-pyrazol-3-yl)-amide]
143% | 0.625 µM | 145% | Cn1ccc(NC(=O)c2cc(OCc3cc(O)nc(C4CC4)n3)c3c(c2)OC(C)(C)C3)n1 [Example 95, 4-(2-Cyclopropyl-6-hydroxy-pyrimidin-4-ylmethoxy)-2,2-dimethyl-2,3-dihydro-benzofuran-6-carboxylic acid (1-methyl-1H-pyrazol-3-yl)-amide]
107% | 7.3 µM | 148% | Cc1nc(COc2cc(C(=O)Nc3ccn(C)n3)cc3c2CC(C)(C)O3)no1 [Example 96, 2,2-Dimethyl-4-(5-methyl-[1,2,4]oxadiazol-3-ylmethoxy)-2,3-dihydro-benzofuran-6-carboxylic acid (1-methyl-1H-pyrazol-3-yl)-amide]
